Patent publication US10857180B2, “Pharmaceutical composition for improving health, cure abnormalities and degenerative disease, achieve anti-aging effect of therapy and therapeutic effect on mammals and method thereof” (priority 2014, dated 2020)

Legend:
HL-60 cells = experiment: Morphological and growth characteristics of HL-60 cells; type: cell-based, human; details: sulfates, living cell culture
Source text: However, articles about an important role of EMT in the study of lymphomas and leukemias as well have started coming out recently, which is an interesting stage in the research into the tumor process as a whole, since these tumors radically differ from “usual solid neoplasias” in their histogenesis and, accordingly, in their phenotypic characteristics. Thus, such comprehensive research into adhesion proteins and cell cytoskeleton in the tumor cells of Burkitt lymphoma and acute promyelocyte leukemia after the action of the group of components under study is a relevant and contemporary attempt of a deeper analysis of the modification of a cell phenotype of tumor cells in order to assess changes in the degree of their malignancy. Materials and methods for leukemia cell lines HL-60 and Namalva and cell culture conditions will now be described. […] The first plate was for coloring cells with trypan blue and the second one was for the MTT assay.
After preparation of the corresponding concentrations of the components, they were introduced into appropriate wells of the plate in which HL-60 or Namalva cell were in complete medium. The volume of the culture medium with cells was 100 mcl per well and the concentration of cells in the suspension was 3×10^5 cells/ml (3×10^6/plate). […]

[1] = test system: human non-small cell lung cancer (line A-549) cells; experiment: Immunocytochemistry (H-Score) of A-549 cells; type: cell-based
Method: When making the immunocytochemistry (ICC) assay, cells on microscope glasses (cytospin preparations) were fixed in the solution (methanol+acetone 1:1) for 2 hours at t 20° C. and incubated with 1% solution of bovine serum albumin (BSA) for 20 minutes. Then the monoclonal antibodies-CD44 (Diagnostic BioSystems), E-cadherin (ThermoScientific), N-cadherin (NeoMarker, BioLegend), SLUG (GeneTex)—were applied for the time period specified by the manufacturer (30 to 60 minutes), after which the Poly Vue imaging system conjugated with peroxidase was used and the enzyme activity was detected using diaminobenzidine (ThermoScientific) as a substrate. After the immunocytochemical reaction the preparations were washed with water and counterstained with hematoxylin-eosin (for 15 to 30 seconds).
The results were analyzed by counting cells with expression (brown colored cells) using a light microscope, and were assessed using the classical H-Score method: S=1×A+2×B+3×C, where S is the H-Score index giving a range of 0 (protein is not detected) to 300 (high-level expression in 100% of the cells); A is the percentage of weakly staining cells, B is the percentage of moderately staining cells and C is the percentage of strongly staining cells.

[2] = test system: A-549 cell line (human lung cancer); experiment: Type A cell transformation of A-549 cells, effect of solution storage; type: cell-based
Method: Alluding to the above, the effect of accumulation of antitumor properties of light isotopes containing materials on A-549 tumor cell line will now be discussed. When working with the preparations under study, it was noted that the functional activity of certain doses of the components increased over time after preparation of the solution and its subsequent storage at t+4° C. […] The preparation was stored at the temperature of […].

A-549 cell line = experiment: Cytogenetic analysis (micronucleus test) of A-549 cells; type: cell-based, human; details: for increase of cells with protrusions: A-549
Method: Advanced Micronucleus Test was used to assess the cytogenetic characteristics of cells after their exposure to the action of the test group of components.
Cytogenetic analysis was carried out after 48 hours of exposure of the cells to the action of the components. For cytogenetic analysis, the cells were incubated in hypotonic solution KCl (0.54%) (Reahim, Ukraine) for 40 minutes at +37° C. Then they were fixed with a mixture of methyl alcohol (Reahim, Ukraine) and acetic acid (Himlaborreaktiv, Ukraine) (3:1) with replacing the fixative three times. All fixed cell suspensions were applied on cold wet glasses, dried and stained with Giemsa stain (Sigma, Germany). The cytogenetic preparations were analyzed using a binocular microscope Sari Zeiss, AxioStarPlus (Germany) with magnification of x 1000. The following quantitative characteristics and stages of cell division were analyzed on the preparations: mitoses, cells with premature chromosome condensation (PCC), cells with micronuclei (CMN), apoptotic cells and cells with nuclear protrusions (protrusions) which were calculated for 1000 cells and expressed in per mille (%).

[3] = test system: normal rat kidney cells (NRK cell line); experiment: Effect on normal rat kidney cells versus Doxorubicin
Source text: An immortalized cell line is a stable, capable of unlimited proliferation cell line that consists of cells with […] in culture.

[4] = test system: normal rat kidney cells (NRK cell line); experiment: Scratch assay, NRK cells; type: cell-based; details: various doses; as in the control
Method: The cells of A-549, A-431, NRK, HaCaT, MM-4, normal fibroblasts (derived from the Bank of Cell Lines from human and animal tissues, R. E. Kavetsky Institute of Experimental Pathology, Oncology and Radiobiology, National Academy of Sciences of Ukraine) were cultured in complete culture medium RPMI 1640/DMEM (PAA, Austria) (depending on the cell type) supplemented with 10% fetal calf serum (PAA, Austria) and incubated in 5% CO2 humidified atmosphere at 37° C. The culture medium was replaced in 2 to 3 days and the cells were passaged in 4 to 5 days.
Analysis of the influence of the components under study on the cell migration rate was performed using the scratch assay method. Cells (5×10^4/well) were seeded into the wells of a 12-well plate in 2 repeats in RPMI-1640/DMEM culture medium supplemented with 10% PBS, 40 mcg/ml of gentamicin and incubated in 5% CO2 humidified atmosphere at 37° C. for 24 hours.
The plate was incubated in a CO2 incubator for additional 48 hours. After the cells formed a dense monolayer it was damaged (by making a “scratch”) and the growth medium was replaced to remove cell debris and smooth the edges of the “scratch.” The rate of cell migration was analyzed using an inverted microscope and by photographing cells in the area of injury. The migration activity of cells was fixed at several time points (depending on the cell line analyzed). The microphotomicrographs were analyzed and the cell incubation time needed to restore the monolayer was determined for all experimental groups.

Compound | morphological and growth characteristics (adhesion) (HL-60 cells) | slug-positive cells with cytoplasmic expression [1] | cells of type A ([2]; ^64Zn sulphate, after 28 days) | increase of cells with protrusions (A-549 cell line) [fold] | level of nuclear abnormalities vs control (A-549 cell line; ^64Zn 20 mcg/ml, 48 hours) | level of nuclear abnormalities vs dose of 10 mcg/ml (A-549 cell line; ^64Zn 20 mcg/ml, 48 hours) | effect on functional properties of NRK cells [3] | time of restoration of the damaged monolayer [4] [h] | number of slug-positive cells with nuclear expression [1] | number of cells with E-cadherin ([1]; dose of IC50) | transformation of initial tumor cells to cells of type A ([2]; ^39K 0.4 mg/ml, in both cases) [%] | transformation of initial tumor cells to cells of type A ([2]; ^39K 10 mg/ml) | number of cells of type A after 20 days of storage vs first day ([2]; ^39K sulphate form 2 mg/ml) [fold]
O=S(=O)([O-])[O-].[64Zn+2] [^64Zn] | significant enhancement of adhesion of cells to the substrate | decrease | About 50% | ~10 | fifty times as high as the baseline | triple increase | did not affect functional properties | 30 | – | – | – | – | –
O=S(=O)([O-])[O-].[24Mg+2] [^24Mg] | significant enhancement of adhesion of cells to the substrate | – | – | – | – | – | did not affect functional properties | – | – | – | – | – | –
[39K+].[Cl-] [^39K] | – | – | – | 15 | – | – | – | 30 | significantly decreased | inhibition | 100 | no transformational effect was found | 2
